Assay: Crystallinity analysis by X-ray diffraction (XRD)
Type: physicochemical
Conditions: pure API or extrudate after melt extrusion
Protocol: The mixtures of examples 1 to 4 were extrudated, comminuted and subsequently sifted through a sieve of 40 mesh (0.42 mm) and analyzed. X-ray diffraction analysis was carried out for crytallinity. Dissolution rate analysis of both active compound was carried out to check solubility enhancement.

SMILES | Crystallinity by X-ray diffraction (XRD pattern)
Cc1cccc(C)c1OCC(=O)N[C@@H](Cc1ccccc1)[C@@H](O)C[C@H](Cc1ccccc1)NC(=O)[C@H](C(C)C)N1CCCNC1=O [Lopinavir] | crystalline form
CC(C)c1nc(CN(C)C(=O)N[C@H](C(=O)N[C@@H](Cc2ccccc2)C[C@H](O)[C@H](Cc2ccccc2)NC(=O)OCc2cncs2)C(C)C)cs1 [Ritonavir] | crystalline form
